Laboratory results reported in PMC9163831 (Frontiers in Microbiology, 2022).

Tests used:
[1] = tested on: mcr-1-positive Salmonella; test: Dose determination from AUC/MIC targets; format: in vivo, broilers; conditions: combination: with 32 mg/kg of IBG
Source text: The potential optimal dosage can be calculated using the following equation (Toutain et al., [2002], [2007]):
(3) Dose=(AUC/MIC)·MIC·CL/fu·F,
where dose (per day) is at steady state; CL is the clearance per day; AUC/MIC is the targeted endpoint for optimal efficacy in hours; MIC is the target pathogen; F is the bioavailability factor (from 0 to 1), and fu is the free fraction of the drug (from 0 to 1). In this study, fu = 1.

[2] = tested on: mcr-1-positive Salmonella; test: MIC of colistin with and without IBG; format: cell-based
Protocol: (§1) The susceptibility of the selected Salmonella isolates and quality control isolate (ATCC 25922) to colistin and IBG in MH broth was investigated in accordance with the methods and quality control requirements recommended by the Clinical and Laboratory Standards Institute. Minimal inhibitory concentration (MIC) was the lowest concentration of colistin where visible bacterial growth was inhibited after 24 h of incubation. E. coli ATCC 25922 was used as the quality control strain to ensure the credibility of MICs tested. Susceptibility testing was performed in triplicate and germ-free controls (blank medium). The minimum bactericidal concentration (MBC) in MH broth was measured according to a previous report (Lei et al., [2017]). The synergistic activity between colistin and IBG, and the fractional inhibitory concentration indices (FICI) were measured by checkerboard assays, based on the MIC of each drug (MacNair et al., [2018]). In brief, 50 μL of broth was added to each well, and 50 μL of the indicated concentration of colistin was added into the first well of each line. This process was followed by multiple proportion dilution. Next, 50 μL of samples of different IBG concentrations was added to the dilution medium, and 100 μL of inoculum with a cell density of ~1 × 10^6 colony-forming units (CFU)/mL was added to each well.

[3] = set-up: method as in Mead et al. ([2021]); conditions: oral administration, 75,000 I.U./kg, chicken; ref Mead et al. ([2021]); cited from earlier work
[4] = tested on: Salmonella 26FS26 (mcr-1); test: Antimicrobial combination susceptibility testing (MIC, MBC, checkerboard FICI) in MH broth; format: cell-based, S. typhimurium; conditions: for MIC (in combination): colistin + IBG checkerboard
Protocol: as §1, with “well. The FICI was calculated follows:” for “well.”
(§2) (1) FICI=MIC(Colistinincombination)/MIC(Colistin)+MIC(IBGincombination)/MIC(IBG).

[5] = tested on: Salmonella 26FS14 (mcr-1); test: as above; format: cell-based, S. typhimurium; conditions: for MIC (in combination): colistin + IBG checkerboard
Protocol: as §1, with “well. The FICI was calculated follows:” for “well.”
as §2

Salmonella ATCC14028 = test: as above; format: cell-based, S. typhimurium; conditions: for MBC / MIC: alone; for MIC (in combination): colistin + IBG checkerboard
Protocol: as §1, with “well. The FICI was calculated follows:” for “well.”
as §2

Salmonella S235 (mcr-1) = test: as above; format: cell-based, S. typhimurium; conditions: for MIC (in combination): colistin + IBG checkerboard
Protocol: as §1, with “well. The FICI was calculated follows:” for “well.”
as §2

Salmonella S226 (mcr-1) = test: as above; format: cell-based, S. typhimurium; conditions: for MIC (in combination): colistin + IBG checkerboard
Protocol: as §1, with “well. The FICI was calculated follows:” for “well.”
as §2

[6] = tested on: mcr-1-positive Salmonella; test: PK/PD analysis, inhibitory effect Imax model; format: in vivo, broilers
Protocol: PK/PD analysis was conducted using the inhibitory effect Imax model (Riviere and Toutain, [2011]). This model is described by the following equation: […]
where E is the antibacterial effect, measured as change in log10CFU/g after 24 h of treatment, compared with the initial log10CFU/g in the untreated control broiler; E0 is the difference in the number of bacteria (log10CFU/g) in control samples between time 0 and 24 h. Imax is the maximum antimicrobial growth inhibition determined as the change in log10CFU/g after 24 h treatment with colistin combined with IBG. X is the predictive variable (expressed as AUC0−24h/MIC, Cmax/MIC, and %T>MIC), and IC50 is the X value producing 50% of the maximum antibacterial effect. The relationship between efficacy and the three PK/PD indices was determined by non-linear least-squares regression in a Phoenix WinNonlin® PD model. The coefficient of determination (R^2) was used to estimate the variance caused by regression for each PK/PD index.

[7] = tested on: mcr-1-positive Salmonella; test: Pharmacodynamics of colistin combined with IBG in an intestinal infection model; format: in vivo, broilers
Protocol: Broilers were inoculated by oral gavage with 1 mL of mcr-1-positive Salmonella culture containing […]. Necropsies of broilers that had died from infection and of euthanized animals were investigated, and the ileum content samples of broilers were taken as previously described (Addwebi et al., [2014]; Wang et al., [2020]). DNA was extracted from ileum content samples using a fecal DNA extraction kit (G-Clone, Beijing, China) in accordance with the manufacturer's instructions.
Pharmacodynamic analysis of combined colistin and IBG treatment in mcr-1-positive Salmonella infection broilers was performed at 3 h after administration of the inoculum. Afterward, 32 mg/kg of IBG was combined with 2, 4, 8, or 16 mg/kg of colistin, and colistin and IBG were also tested alone at 2, 4, 8, and 16 mg/kg (n = 4 for each group). The broilers were sacrificed after 24 h of therapy, and the intestinal content samples were aseptically removed and homogenized for CFU determination. Untreated control broilers were sacrificed before colistin treatment and at 24 h after treatment.

[8] = Pharmacokinetics of colistin in ileum contents, mcr-1-positive Salmonella infection model; format: in vivo, broilers; conditions: for AUC0-24h (intestinal colistin) / Cmax (peak intestinal colistin concentration) / T>MIC: infected broiler
Protocol: After 7-day acclimation, 200 infected broilers were randomly divided into five groups (n = 40/group). Pharmacokinetic analysis of colistin (2, 4, 8, and 16 mg/kg) alone and in combination (4 mg/kg colistin, 32 mg/kg IBG) was performed in mcr-1-positive Salmonella infection broilers following oral gavage. At 0.25, 0.5, 0.75, 1, 2, 4, 6, 8, 12, and 24 h after oral administration, four broilers per group were humanely killed and ileum contents (0.5 g) were sampled. The concentration of colistin in each ileum content sample was determined by validated liquid chromatography-tandem mass spectrometry (LC-MS/MS), with minor modifications. Briefly, intestinal contents (0.5 g) were extracted with 10 mL of 10% trichloroacetic acid and 10 mL of 4% lead acetate, homogenized for 1 min, ultrasonicated (30 min) and centrifuged (10,000 g, 10 min) to obtain supernatant. Thereafter, 2 mL of extraction solution was applied to HLB SPE cartridges, which were prewashed with 3 mL of methanol and 3 mL of water. The cartridges were then rinsed with 3 mL of 4% lead acetate. Afterward, the colistin was eluted with 6 mL of 20% methanol. The elute was evaporated to dryness under a gentle N2 stream at 40°C and the residue was dissolved in 0.5 mL of 0.1% formic acid for concentration analysis. The drug concentrations in intestinal contents were determined using HPLC-MS/MS. The calibration range was 0.25–5 μg/g. The intraday and interday precision levels varied from 2.1 to 9.8% and from 4.5 to 7.0%, respectively. The limit of detection (LOD) and limit of quantification (LOQ) were 0.10 and 0.25 μg/g, respectively.
The values of colistin intestinal content PK parameters in single-dose PK studies were obtained by non-compartmental analysis in Phoenix WinNonlin® 8.2 (Certara, L.P., Princeton, NJ, USA).

[9] = tested on: mcr-1-positive Salmonella; test: In vitro time-killing curves; format: cell-based
Protocol: After MIC determination, different concentrations of colistin were prepared in broth ranging from different doses before bacterial inoculation (10^6 CFU/mL). Growth was checked with control. The tubes containing bacteria and different concentrations of colistin and IBG were incubated at 37°C. The bacterial count (CFU/mL) was determined for each tube after 0, 1, 2, 4, 6, 8, 12, and 24 h of incubation. In brief, 100 μL of culture was obtained for each time point, and serially diluted, and the colonies were counted the next morning. Each concentration test was performed in triplicate.

erythrocytes in mice = tested on: erythrocytes in mice; set-up: method as in Zhang et al., [2019]; conditions: ref Zhang et al., [2019]; cited from earlier work
[10] = set-up: method as in Xiao et al., [2018]; conditions: IBG supplementation; ref Xiao et al., [2018]; cited from earlier work
[11] = tested on: human lung epithelial cells (A549); set-up: method as in Zhang et al., [2019]; conditions: ref Zhang et al., [2019]; cited from earlier work
[12] = single gavage 16 mg/kg colistin

Colistin sulfate
Dose of colistin required to reach 1 × log10 kill [1]: 7.54 mg/kg | Dose of colistin required to reach 3 × log10 kill [1]: could not achieve | Dose of colistin required to reach 4 × log10 kill [1]: could not achieve | Dose of colistin required to reach stasis [1]: 1.94 mg/kg | MIC of colistin ([2]; colistin alone): 2 µg/mL | MIC of colistin in the presence of IBG ([2]; in the presence of 8 mg/L of IBG): 0.25 µg/mL | Time to colistin levels below the LOQ after dosing cessation [3]: ≤ 4 h | MBC ([4]; alone): 4 µg/mL | MIC ([4]; alone): 2 µg/mL | MIC (in combination) [4]: 0.5 µg/mL | MBC ([5]; alone): 4 µg/mL | MIC ([5]; alone): 2 µg/mL | MIC (in combination) [5]: 0.25 µg/mL | MBC (Salmonella ATCC14028): 1 µg/mL | MIC (Salmonella ATCC14028): 0.5 µg/mL | MIC (in combination) (Salmonella ATCC14028): 0.125 µg/mL | MBC (Salmonella S235 (mcr-1); alone): 4 µg/mL | MIC (Salmonella S235 (mcr-1); alone): 2 µg/mL | MIC (in combination) (Salmonella S235 (mcr-1)): 0.25 µg/mL | MBC (Salmonella S226 (mcr-1); alone): 4 µg/mL | MIC (Salmonella S226 (mcr-1); alone): 2 µg/mL | MIC (in combination) (Salmonella S226 (mcr-1)): 0.25 µg/mL | E0 ([6]; Imax model, AUC0-24h/MIC index): 0.51 log10CFU/g | IC50 (AUC0-24h/MIC producing 50% of the maximum antibacterial effect) ([6]; Imax model, AUC0-24h/MIC index): 122.19 | Imax ([6]; Imax model, AUC0-24h/MIC index): 4.55 log10CFU/g | AUC0-24h/MIC for 1 log10 kill ([6]; intestinal infection model): 60.66 | AUC0-24h/MIC for 2 log10 kill ([6]; intestinal infection model): 150.15 | AUC0-24h/MIC for bacteriostatic action ([6]; intestinal infection model): 15.62 | Effect on broilers infected with mcr-1 positive Salmonella ([7]; single dose of 2–16 mg/kg of colistin every 24 h): not significant effect | 3 × log10 kill effect in vivo ([7]; ≤ 16 mg/kg of colistin, monotherapy): could not achieve | Colistin in ileum samples after 4 h ([8]; doses <16 mg/kg, after gavage): no colistin was detectable | AUC0-24h (intestinal colistin) ([8]; single gavage 2 mg/kg colistin): 31.58 µg·h/mL | Cmax (peak intestinal colistin concentration) ([8]; single gavage 2 mg/kg colistin): 13.74 µg/mL | T>MIC ([8]; single gavage 2 mg/kg colistin): 15.11% | AUC0-24h (intestinal colistin) ([8]; single gavage 4 mg/kg colistin): 43.79 µg·h/mL | Cmax (peak intestinal colistin concentration) ([8]; single gavage 4 mg/kg colistin): 34.37 µg/mL | T>MIC ([8]; single gavage 4 mg/kg colistin): 16.48% | AUC0-24h (intestinal colistin) ([8]; single gavage 8 mg/kg colistin): 191.81 µg·h/mL | Cmax (peak intestinal colistin concentration) ([8]; single gavage 8 mg/kg colistin): 75.92 µg/mL | T>MIC ([8]; single gavage 8 mg/kg colistin): 16.62% | AUC0-24h (intestinal colistin) [8, 12]: 505.29 µg·h/mL | Cmax (peak intestinal colistin concentration) [8, 12]: 151.15 µg/mL | T>MIC [8, 12]: 99.98% | Time-kill result ([9]; colistin at 4 mg/L, mcr-1-positive Salmonella): Persisting inhibition of bacterial growth | Killing characteristic (time-kill profiles) ([9]; varying concentrations, 24 h): concentration-dependent killing

CC(C)Oc1ccc(/C=N/NC(=N)N/N=C/c2ccc(OC(C)C)cc2)cc1 [IBG, isopropoxy benzene guanidine]
HC50 (erythrocytes in mice): > 400 µg/mL | Adverse reactions in broilers [10]: without adverse reactions | Average daily gain of broilers [10]: improved | Diarrhea rate of broilers [10]: reduced | MIC (in combination) [4]: 16 µg/mL | MIC (in combination) [5]: 8 µg/mL | MBC (Salmonella ATCC14028): >512 µg/mL | MIC (Salmonella ATCC14028): >512 µg/mL | MIC (in combination) (Salmonella ATCC14028): 4 µg/mL | MIC (in combination) (Salmonella S235 (mcr-1)): 16 µg/mL | MIC (in combination) (Salmonella S226 (mcr-1)): 16 µg/mL | Cytotoxicity IC50 [11]: 28 µg/mL
